# Measurements from patent publication US20040214832A1, “Piperazine derivative renin inhibitors” (priority 2003, published 2004).
# Biological target: T1, human renin (Homo sapiens, UniProt P00797)
# T1 sequence (P00797 67-406): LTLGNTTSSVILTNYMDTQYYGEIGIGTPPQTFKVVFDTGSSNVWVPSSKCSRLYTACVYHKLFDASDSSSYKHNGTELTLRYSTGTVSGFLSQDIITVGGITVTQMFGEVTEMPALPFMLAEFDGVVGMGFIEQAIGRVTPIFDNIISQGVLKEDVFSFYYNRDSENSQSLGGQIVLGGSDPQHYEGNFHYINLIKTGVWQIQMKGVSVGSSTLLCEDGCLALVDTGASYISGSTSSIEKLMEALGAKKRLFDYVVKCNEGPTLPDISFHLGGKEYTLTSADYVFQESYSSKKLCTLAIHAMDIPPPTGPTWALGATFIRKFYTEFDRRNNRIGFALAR
# Experiment: Determination of renin IC50 by tGFP FRET assay
# Type: biochemical
# Details: Human recombinant renin, tandem GFP substrate 650 nM, 60 min incubation with compound, pH 7.4, 11-point curve
# Method in brief: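 Human recombinant renin (final 50.4 μIU) preincubated 60 min with compound (5% DMSO final) in 50 mM HEPES, 1 mM EDTA, 1% PEG 8000, 1 mM DTT, 0.1% BSA, pH 7.4, then tandem-GFP substrate added at 650 nM final. FRET fluorescence read; IC50 from 11-point curves spanning 100 μM–1 pM.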
row,SMILES,IC50
1,"COc1ccccc1COCCCOc1ccc(N2C(=O)CNC[C@H]2COCc2ccc(F)cc2)cc1 [Example 46, (6S)-6-(4-fluorobenzyloxymethyl)-1-{4-[3-(2-methoxybenzyloxy)-propoxy]-phenyl}-piperazin-2-one]",5590 nM
2,"Fc1ccccc1COCCCOc1ccc(N2CCNC[C@@H]2COc2ccc3ccccc3c2)cc1 [Example 87, (2R)-1-{4-[3-(2-fluorobenzyloxy)-propoxy]-phenyl}-2-(naphthalen-2-yloxymethyl)-piperazine]",597 nM
3,"COc1ccc(COC[C@H]2CNCCN2c2ccc(OCCCCOc3ccccc3OC)cc2)cc1 [Example 75, (2R)-2-(4-methoxybenzyloxymethyl)-1-{4-[4-(2-methoxyphenoxy)-butoxy]-phenyl}-piperazine]",42000 nM
4,"COc1ccccc1COCCCOc1ccc(N2C(=O)CNC[C@@H]2COCc2ccc(F)c(C(F)(F)F)c2)cc1 [Example 26, (6R)-6-(4-fluoro-3-trifluoromethylbenzyloxymethyl)-1-{4-[3-(2-methoxybenzyloxy)-propoxy]-phenyl}-piperazin-2-one]",132 nM
5,"COc1ccc(COC[C@H]2CNCCN2c2ccc(OCCCOCc3ccccc3OC)cc2)cc1 [Example 33, (2R)-2-(4-methoxybenzyloxymethyl)-1-{4-[3-(2-methoxy-benzyloxy)-propoxy]-phenyl}-piperazine]",3990 nM
6,"COc1ccccc1COCCCOc1ccc(N2C(=O)CNC[C@@H]2COCc2cccc(Cl)c2)cc1 [Example 6, (6R)-6-(3-chlorobenzyloxymethyl)-1-{4-[3-(2-methoxybenzyloxy)-propoxy]-phenyl}-piperazin-2-one]",325 nM

# The remaining lines, values ahead:
row,IC50,SMILES
1,124 nM,"COc1ccccc1COCCCOc1ccc(N2C(=O)CNC[C@@H]2COc2ccc3c(c2)NCCC3)cc1 [Example 42, (6R)-1-{4-[3-(2-methoxybenzyloxy)-propoxy]-phenyl}-6-(1,2,3,4-tetrahydroquinolin-7-yloxymethyl)-piperazin-2-one]"
2,537 nM,"COc1ccccc1COCCCOc1ccc(N2C(=O)CNC[C@@H]2COc2ccc3ccccc3c2)cc1OC [Example 107, (6R)-1-(3-methoxy-4-[3-(2-methoxybenzyloxy)-propoxy]-phenyl)-6-(naphthalene-2-yloxymethyl)-piperazin-2-one]"
3,1.62 nM,"COC(=O)CCn1ccc2cc(OC[C@H]3CNCC(=O)N3c3ccc(OCCCOCc4ccccc4OC)cc3)ccc21 [Example 119, 3-[5-([2R]-1-{4-[3-(2-Methoxybenzyloxy)-propoxy]-phenyl}-6-oxopiperazin-2-ylmethoxy)-indol-1-yl]-propionic acid methyl ester]"
4,9.59 nM,"COC(=O)CCN1CCc2ccc(OC[C@H]3CNCC(=O)N3c3ccc(OCCCOCc4ccccc4OC)cc3)cc21 [Example 133, 3-[6-([2R]-1-{4-[3-(2-Methoxybenzyloxy)-propoxy]-phenyl}-6-oxo-piperazin-2-ylmethoxy)-2,3-dihydro-indol-1-yl]-propionic acid methyl ester]"
5,880 nM,"COc1ccccc1COCCCOc1ccc(N2C(=O)CNC[C@@H]2COCc2ccccc2OC)cc1 [Example 10, (6R)-6-(2-methoxybenzyloxymethyl)-1-{4-[3-(2-methoxybenzyloxy)-propoxy]-phenyl}-piperazin-2-one]"
